How the values were obtained:
[1] = molecular target: T1, recombinant mammalian TrxR1/Trx1 (Rattus norvegicus, UniProt O89049); test: Reduction of purified mAb B by recombinant TrxR1/Trx1, capillary electrophoresis; format: biochemical, human (Trx1); conditions: 0.1 mM ATG, purified mAb B, overnight, oxygen-free
T1 construct: purchased Cayman Chemical (TrxR1); Abcam (Trx1)
T1 sequence (O89049 1-499): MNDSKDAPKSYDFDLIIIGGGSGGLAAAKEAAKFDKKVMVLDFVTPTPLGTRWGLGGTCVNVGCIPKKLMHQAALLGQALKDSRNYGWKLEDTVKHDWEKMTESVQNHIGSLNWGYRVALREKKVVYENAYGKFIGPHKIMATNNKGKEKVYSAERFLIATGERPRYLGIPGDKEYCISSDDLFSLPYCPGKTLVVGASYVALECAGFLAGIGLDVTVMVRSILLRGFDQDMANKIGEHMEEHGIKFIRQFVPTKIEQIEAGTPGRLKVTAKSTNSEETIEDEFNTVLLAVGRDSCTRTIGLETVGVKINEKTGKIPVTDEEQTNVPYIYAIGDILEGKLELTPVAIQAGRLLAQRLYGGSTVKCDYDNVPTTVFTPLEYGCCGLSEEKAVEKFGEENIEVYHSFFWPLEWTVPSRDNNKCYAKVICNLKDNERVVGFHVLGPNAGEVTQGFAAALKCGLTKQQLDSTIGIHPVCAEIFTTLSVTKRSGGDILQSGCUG
Procedure: (§1) Antibody reduction in cell culture supernatant samples was measured by detecting the presence of reduced species via capillary electrophoresis using standard procedures on a 2100 Bioanalyzer system (Agilent Technologies, Santa Clara, Calif.). Samples were diluted 1-6 fold depending on titer and analyzed under non-reducing conditions following 2100 Bioanalyzer standard protocols. Supernatant samples from 3 L bioreactors were stored frozen until all samples had been acquired and were ready for analysis. Samples were thawed on ice and analyzed immediately to evaluate the amount of reduced antibody in the reactor on each day of the run.
The role of each enzymatic system in antibody reduction was evaluated by determining the conditions under which these reductase systems cause antibody reduction. Using purified recombinant mammalian reductases, the thioredoxin system was evaluated by spiking purified mAb B into five solutions containing: 1) no enzymes, 2) 1 μM TrxR1, 3) 0.1 μM TrxR1, 4) […], and 5) 0.1 μM TrxR1+2.5 μM Trx1. All samples contained 0.4 mM NADPH and were stored at room temperature overnight. Digital gel-like images were obtained from microchip-based capillary electrophoresis analysis.
(§2) To confirm that the activity from a particular reductase system can translate into reduced antibody, a second method was developed to determine the impact of each reductase system on antibody reduction. The principle of the reduction assay is similar to the reductase activity assay described above. The percent of protein reduction without an inhibitor was compared to the percent of protein reduction in the presence of specific inhibitors for GR or TrxR1. In this assay, purified mAb B was spiked into solutions containing recombinant mammalian TrxR1/Trx1 or recombinant mammalian GR/GSSG and stored in an oxygen-free environment overnight. The percent of reduced mAb B antibody was evaluated using capillary electrophoresis, as set forth above.

[2] = tested on: GR isolated from CHO cell culture; test: mAb B reduction by pooled CHO fractions with NADPH and GSSG; format: biochemical, Chinese Hamster; conditions: 3 μM Cu^2+ or 100 μM ATG, overnight room temperature
Procedure: Purified mAb B was spiked into several solutions containing different combinations of the pooled fractions (PF), recombinant Trx1, GSSG, NADPH, ATG, and Cu^2+. The solutions were incubated at room temperature overnight and the amount of intact antibody remaining was determined by capillary electrophoresis according to the protocol described above. In the first set of samples, purified mAb B was spiked into the pooled fractions with, and without, NADPH.
In the second set of samples, purified mAb B was spiked into solutions containing the pooled enzymes, NADPH, GSSG, and either no inhibitor, 3 μM Cu^2+, or 100 μM ATG. […] This solution contained GR, GSSG, and NADPH, which are needed for the glutathione system.

[3] = molecular target: T2, recombinant mammalian GR/GSSG (Homo sapiens, UniProt P00390); test: Reduction of purified mAb B by recombinant GR/GSSG, capillary electrophoresis; format: biochemical
T2 construct: purchased Abcam
T2 sequence (P00390 44-522): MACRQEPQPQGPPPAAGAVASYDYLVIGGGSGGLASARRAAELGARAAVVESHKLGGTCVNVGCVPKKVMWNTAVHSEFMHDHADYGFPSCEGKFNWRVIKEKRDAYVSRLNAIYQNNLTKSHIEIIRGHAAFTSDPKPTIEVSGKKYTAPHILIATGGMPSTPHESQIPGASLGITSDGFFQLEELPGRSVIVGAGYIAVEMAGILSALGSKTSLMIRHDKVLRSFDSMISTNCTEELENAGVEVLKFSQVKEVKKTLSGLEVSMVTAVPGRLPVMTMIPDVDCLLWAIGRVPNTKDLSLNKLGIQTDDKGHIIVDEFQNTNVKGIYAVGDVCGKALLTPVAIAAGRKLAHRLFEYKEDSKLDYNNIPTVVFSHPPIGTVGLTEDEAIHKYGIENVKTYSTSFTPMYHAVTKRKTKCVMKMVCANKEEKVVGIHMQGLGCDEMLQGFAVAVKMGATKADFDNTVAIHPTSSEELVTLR
Procedure: as §1
Using the same approach with recombinant mammalian enzymes, the glutathione system was evaluated by spiking mAb B into five solutions containing: 1) no enzyme, 2) 1 mM GSSG (oxidized glutathione), 3) 0.2 μM GR (glutathione reductase), 4) 0.2 μM GR with 1 mM GSSG, and 5) 0.02 μM GR with 1 mM GSSG. […] The results indicated a minimal mAb B reduction in the solutions containing GSSG alone. This is the result of an impurity in the GSSG. […] was reduced in the solutions containing both GR and GSSG.
as §2

OC[C@H]1O[C@H]([S-])[C@H](O)[C@@H](O)[C@@H]1O.[Au+] [ATG, aurothioglucose]
antibody reduction in sample containing TrxR1/Trx1 [1]: complete inhibition of antibody reduction
antibody reduction in pooled enzymes, NADPH, GSSG [2]: did not inhibit antibody reduction
antibody reduction in sample containing GR/GSSG ([3]; 0.1 mM ATG, purified mAb B, overnight, oxygen-free): complete reduction of the antibody
specificity in GR/GSSG samples at higher concentrations ([3]; 0.5 mM and 1 mM ATG, increasing intact antibody): no longer specific for the thioredoxin system
